Laboratory results published in ChEMBL document CHEMBL6109071, “Chemical modification for improving drug-like molecular properties of climacostol, a natural resorcinolic lipid” (Bioorg Med Chem, 2025).
Converted amounts (≈) assume the structure as drawn. The source made the active and inactive calls. The rule behind the calls is not given here.

Key:
Spirostomum teres [1] = assay: Cytotoxicity against Spirostomum teres stock Pol-1 assessed as reduction in viability measured after 24 hrs; format: functional
Stentor polymorphus [2] = assay: Cytotoxicity against Stentor polymorphus stock GF-1 assessed as reduction in viability measured after 1 hr; format: functional
Spirostomum teres [3] = assay: Cytotoxicity against Spirostomum teres stock Pol-1 assessed as reduction in viability measured after 1 hr; format: functional
Blepharisma japonicum [4] = assay: Cytotoxicity against Blepharisma japonicum R1072 assessed as reduction in viability measured after 24 hrs; format: functional
[5] = tested on: Paramecium multimicronucleatum; assay: Cytotoxicity against Paramecium multimicronucleatum clone TL-2 assessed as reduction in viability measured after 1 hr; format: functional
Euplotes aediculatus [6] = assay: Cytotoxicity against Euplotes aediculatus clone EA-III assessed as reduction in viability measured after 1 hr; format: functional
Euplotes aediculatus [7] = assay: Cytotoxicity against Euplotes aediculatus clone EA-III assessed as reduction in viability measured after 24 hrs; format: functional
Spirostomum ambiguum = assay: Cytotoxicity against Spirostomum ambiguum stock Pol-5 assessed as reduction in viability measured after 1 hr; format: functional
SH-SY5Y [8] = assay: Cytotoxicity against human SH-SY5Y cells assessed as reduction in cell viability at 30 ug/ml measured after 3 hrs by MTT assay relative to control; format: functional
[9] = tested on: Paramecium multimicronucleatum; assay: Cytotoxicity against Paramecium multimicronucleatum clone TL-2 assessed as reduction in viability measured after 24 hrs; format: functional
Paramecium tetraurelia [10] = assay: Cytotoxicity against Paramecium tetraurelia stock 51 assessed as reduction in viability measured after 1 hr; format: functional
Blepharisma japonicum [11] = assay: Cytotoxicity against Blepharisma japonicum R1072 assessed as reduction in viability measured after 1 hr; format: functional
SH-SY5Y [12] = assay: Cytotoxicity against human SH-SY5Y cells assessed as cell death at 30 ug/ml measured after 24 hrs by MTT assay relative to control; format: functional
Stentor polymorphus [13] = assay: Cytotoxicity against Stentor polymorphus stock GF-1 assessed as reduction in viability measured after 24 hrs; format: functional
Paramecium tetraurelia [14] = assay: Cytotoxicity against Paramecium tetraurelia stock 51 assessed as reduction in viability measured after 24 hrs; format: functional
SH-SY5Y [15] = assay: Cytotoxicity against human SH-SY5Y cells assessed as reduction in cell viability measured after 24 hrs by MTT assay; format: functional, cell-based
[16] = Toxicity in Drosophila melanogaster Oregon-R assessed as DNA fragmentation in digestive tract of third instar larvae at 100 ug/ml administered through feeding measured after day 8 to 9 by TUNEL/DAPI staining based confocal microscopy; settings: po, time 8-9 day, dose 100 µg/ml
[17] = Toxicity in Drosophila melanogaster Oregon-R assessed as change in larvae development by measuring reduction in developed third instar larvae at 100 ug/ml administered through feeding measured twice daily on day 8 to 9 post-treatment relative to control; parameters: scale not given: the % may be the effect or the level left; settings: po, at 100 µg/mL, time 8-9 day
[18] = Toxicity in Drosophila melanogaster Oregon-R assessed as increase in cleaved caspase-3 in the cytoplasm of midgut cells of third instar larvae at 100 ug/ml administered through feeding measured after day 8 to 9 by DAPI immunostaining based confocal microscopy; format: tissue-based; settings: po, time 8-9 day, dose 100 µg/ml
Euplotes aediculatus [19] = assay: Potency index, ratio of climacostol LC50 to test compound LC50 for cytotoxicity against Euplotes aediculatus clone EA-III; format: functional
SH-SY5Y [20] = assay: Induction of apoptosis in human SH-SY5Y cells assessed as increase in caspase-3 expression at 10 to 30 ug/ml measured after 9 hrs by immunostaining based confocal microscopy; format: functional, cell-based; settings: dose 10-30 µg/ml
SH-SY5Y [21] = assay: Cytotoxicity against human SH-SY5Y cells assessed as cell death at 10 ug/ml measured after 24 hrs by MTT assay relative to control; format: functional
SH-SY5Y [22] = assay: Induction of apoptosis in human SH-SY5Y cells assessed as altered morphology of nuclear area at 10 to 30 ug/ml measured after 9 hrs by DAPI/phalloidin staining based confocal microscopy; format: functional, cell-based; settings: dose 10-30 µg/ml
SH-SY5Y [23] = assay: Induction of apoptosis in human SH-SY5Y cells assessed as chromatin condensation at 10 to 30 ug/ml measured after 9 hrs by DAPI/phalloidin staining based confocal microscopy; format: functional, cell-based; settings: dose 10-30 µg/ml
SH-SY5Y [24] = assay: Induction of apoptosis in human SH-SY5Y cells assessed as cytoplasmic shrinkage at 10 to 30 ug/ml measured after 9 hrs by DAPI/phalloidin staining based confocal microscopy; format: functional, cell-based; settings: dose 10-30 µg/ml
[25] = tested on: Paramecium multimicronucleatum; assay: Potency index, ratio of climacostol LC50 to test compound LC50 for cytotoxicity against Paramecium multimicronucleatum clone TL-2; format: functional
SH-SY5Y [26] = assay: Induction of apoptosis in human SH-SY5Y cells assessed as altered roundness of nuclear area at 10 to 30 ug/ml measured after 9 hrs by DAPI/phalloidin staining based confocal microscopy; format: functional, cell-based; settings: dose 10-30 µg/ml
Paramecium tetraurelia [27] = assay: Potency index, ratio of climacostol LC50 to test compound LC50 for cytotoxicity against Paramecium tetraurelia stock 51; format: functional

SMILES | LC50 (Spirostomum teres [1]) | LC50 (Stentor polymorphus [2]) | LC50 (Spirostomum teres [3]) | LC50 (Blepharisma japonicum [4]) | LC50 [5] | LC50 (Euplotes aediculatus [6]) | LC50 (Euplotes aediculatus [7]) | LC50 (Spirostomum ambiguum) | LC50 [9] | LC50 (Paramecium tetraurelia [10]) | LC50 (Blepharisma japonicum [11]) | LC50 (Stentor polymorphus [13]) | LC50 (Paramecium tetraurelia [14]) | Activity (SH-SY5Y [15]) | IC50 (SH-SY5Y [15]) | also measured
CCCCCC/C=C\Cc1cc(O)cc(O)c1 | 1.68 µg/mL (≈ 7.17 µM) | 1.21 µg/mL (≈ 5.16 µM) | 2.04 µg/mL (≈ 8.71 µM) | 2.04 µg/mL (≈ 8.71 µM) | 1.64 µg/mL (≈ 7 µM) | 1.7 µg/mL (≈ 7.25 µM) | 0.83 µg/mL (≈ 3.54 µM) | 2.03 µg/mL (≈ 8.66 µM) | 0.88 µg/mL (≈ 3.76 µM) | 1.43 µg/mL (≈ 6.1 µM) | 3.17 µg/mL (≈ 13.5 µM) | 0.94 µg/mL (≈ 4.01 µM) | 0.9 µg/mL (≈ 3.84 µM) | Dose-dependent-effect | 12.9 µg/mL (≈ 54.9 µM) | Activity (SH-SY5Y [8]; dose 30.0 µg/ml): inactive; Emax at 30 µg/mL (SH-SY5Y [12]): 90%
CCCCCC/C=C\Cc1cc(O)cc(O)c1O | 1.86 µg/mL (≈ 7.43 µM) | 1.24 µg/mL (≈ 4.95 µM) | 2.24 µg/mL (≈ 8.95 µM) | 2.07 µg/mL (≈ 8.27 µM) | 0.58 µg/mL (≈ 2.32 µM) | 0.7 µg/mL (≈ 2.8 µM) | 0.23 µg/mL (≈ 0.919 µM) | 3.73 µg/mL (≈ 14.9 µM) | 0.13 µg/mL (≈ 0.519 µM) | 0.29 µg/mL (≈ 1.16 µM) | 3.97 µg/mL (≈ 15.9 µM) | 0.54 µg/mL (≈ 2.16 µM) | 0.21 µg/mL (≈ 0.839 µM) | Dose-dependent-effect | 4.72 µg/mL (≈ 18.9 µM) | Activity [16]: Toxic; Activity [17]: 23%; Activity [18]: Toxic; RatioLC50 (Euplotes aediculatus [19]): 2.5; Activity (SH-SY5Y [20]): Active; Activity (SH-SY5Y [8]; dose 30 µg/ml): 90%; Emax at 10 µg/mL (SH-SY5Y [21]): 90%; Activity (SH-SY5Y [22]): Active; Activity (SH-SY5Y [23]): Active; Activity (SH-SY5Y [24]): Active; RatioLC50 [25]: 2.5; Activity (SH-SY5Y [26]): Active; RatioLC50 (Paramecium tetraurelia [27]): 2.5
